Assays:
[1] = from CN[C@@H](CC1CC1)C(=O)N(CCC1CCCCC1)CC(=O)N[C@@H](COc1cc(OC)c(OC)cc1C(=O)N[C@@H](CC(=O)O)C(=O)OCc1ccccc1)Cc1ccccc1; amide bond; 17-membered ring; FDPP; DCM; 50.0 °C
[2] = from CN[C@@H](CC1CC1)C(=O)N(CCC1CCCCC1)CC(=O)N[C@@H](COc1cc(OC)c(OC)cc1C(=O)N[C@@H](CC(=O)O)C(=O)OCc1ccccc1)Cc1ccccc1; amide bond; FDPP; DCM; 50.0 °C; 12.0 h
[3] = the molecule shown is the open-chain precursor; amide bond; 17-membered ring; 2 steps

Compound `COc1cc2c(cc1OC)C(=O)N[C@H](C(=O)OCc1ccccc1)CC(=O)N(C)[C@@H](CC1CC1)C(=O)N(CCC1CCCCC1)CC(=O)N[C@H](Cc1ccccc1)CO2` has a ring closure, yield after HPLC [1] of 13% and a ring closure, yield of all isomers [2] of 13%.
Work on `CC(C)C[C@@H](C(=O)N1CCCC[C@@H]1C(=O)N[C@@H](COc1cnc2ccccc2c1C(=O)N[C@@H](CC(=O)OC(C)(C)C)C(=O)OCc1ccccc1)Cc1ccccc1)N(C)C(=O)OC(C)(C)C` yielded a ring closure, isolated yield [3] of 58%.

Source: patent US20240208992A1, “MACROCYCLES AS CFTR MODULATORS” (Idorsia Pharmaceuticals Ltd, priority 2021, published 2024)
